From patent publication US20050106635A1, “Compositions and methods for regulating thyroid hormone metabolism and cholesterol and lipid metabolism via the nuclear receptor car” (priority 2002, published 2005)

How the values were obtained:
[1] = system: mouse liver genes differentially expressed in response to CAR activation; test: Affymetrix GeneChip analysis of mouse liver genes differentially expressed after TCPOBOP treatment; type: in vivo
Procedure: A global analysis of mouse liver genes differentially expressed in response to CAR activation was performed. Changes in mRNA steady state levels were assessed using AFFYMETRIX® chip technology. AFFYMETRIX® GeneChip murine genome assays (Mu11k set), representing greater than 13,000 full-length genes and EST clusters, were used. The primary sequence sources for this set were combined Unigene and TIGR databases. […] TCPOBOP is a potent and selective activator of mouse CAR and a useful chemical tool for in vivo differential gene expression studies.
(§1) In these experiments, three mice were treated with 1 mg/kg TCPOBOP in 5% dimethyl sulfoxide (DMSO) and corn oil, intraperitoneally. Control mice (n—3) received vehicle alone. Each mouse received two injections at 24 hour intervals. Livers were harvested after the second injection. Thus, total treatment time was 28 hours. Total mRNA was isolated from the livers using the Trizol method and probes for hybridization to the Affymetrix chips were prepared from the total mRNA. Results were analyzed by Affymetrix microarray Suite version 4.0 software.

[2] = system: mouse sulfotransferase genes; test: Northern blot analysis of sulfotransferase mRNAs in liver of TCPOBOP-treated mice; type: in vivo; settings: 1 mg/kg i.p.
[3] = system: genes involved in hepatic thyroid hormone conjugation and transport; test: RTQ-PCR of thyroid hormone metabolism genes in liver of TCPOBOP-treated mice; type: in vivo, mouse; settings: 1 mg/kg i.p.
[4] = system: mouse sulfotransferase genes; test: Effect of TCPOBOP on expression of the known mouse sulfotransferase genes (method not specified); type: in vivo; settings: mice, liver
Procedure: as §1
Since sulfotransferase activity is important in thyroid metabolism, the effect of TCPOBOP on expression of all of the known mouse sulfotransferase genes was examined. The sulfotransferase set examined included N-SULT, SULT-X1, SULT-X2, aryl sulfotransferase, phenyl sulfotransferase, hydroxysteroid sulfotransferase, SULT-B1, and SUTL1E1. Three of these eight sulfotransferase genes were induced by TCPOBOP. […] Sulfotransferase activity coupled with deiodinase type I activity caused an increased proportion of T4 to be converted to rT3 rather than T3.
The expression of several genes examined in the TCPOBOP study was also examined. Of the sulfotransferase genes, SULT-X1, N-SULT, SULT 1E1, SULT 1B1 and aryl sulfotransferase were examined.

T4 = settings: rats; TCPOBOP at high doses; cited from earlier work
[5] = mice, 1 mg/kg i.p., two injections, liver, 28 hours, Affymetrix chip data

Clc1cnc(Oc2ccc(Oc3ncc(Cl)cc3Cl)cc2)c(Cl)c1 [TCPOBOP, 1,4-bis-[2,-(3,5-dichloropyridyloxy)] benzene]
number of genes (of more than 13,000) displaying a 2-fold or greater change in expression ([1]; mice, 1 mg/kg i.p., two injections at 24 hour intervals, liver, total treatment time 28 hours): 264 genes
CYP2B10 mRNA upregulation in expression [1, 5]: 40 fold
CYP3A1 mRNA upregulation in expression [1, 5]: 20 fold
decrease in the gene encoding the Na+/K+ transporting ATPase [1, 5]: greater than 2 fold
activation of the CAR nuclear receptor ([1]; mouse liver, in vivo differential gene expression study): Selective and potent activation
N-SULT increase [2]: 11.5 fold
SULT-X1 increase [2]: 10.0 fold
expression of the basolateral transporter mrp3 [3]: increased the expression
GST mu1-1 increase ([3]; RTQ-PCR): 2.7 fold
GST mu5-5 increase ([3]; RTQ-PCR): 4.7 fold
GST theta 1-1 increase ([3]; RTQ-PCR): 2.7 fold
GST-Y increase ([3]; RTQ-PCR): 7.5 fold
SULT-X2 increase ([3]; RTQ-PCR): 30 fold
UDP-glucuronysyl transferase 1A1 increase ([3]; RTQ-PCR): 1.6 fold
SULT-1B1 mRNA induction [4]: not induced
SULT-1E1 mRNA induction [4]: not induced
aryl sulfotransferase mRNA induction [4]: not induced
circulating levels of T4 (T4): decreased circulating levels of T4
glucuronidation of T4 (T4): increase in glucuronidation of T4
